Structures are written as SMILES. Where only a bound is given, the exact number is not on record here.

The test addresses T1, IL-17A/A (Homo sapiens, UniProt Q16552).
T1 construct: purchased Genscript Z03228
T1 sequence (Q16552 24-155): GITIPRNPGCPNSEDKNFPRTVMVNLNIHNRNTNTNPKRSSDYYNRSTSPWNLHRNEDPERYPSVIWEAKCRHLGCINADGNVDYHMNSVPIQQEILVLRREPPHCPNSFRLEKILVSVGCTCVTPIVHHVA
Description: HEK-Blue IL-17A/A inhibition assay (SEAP reporter). It counts as cell-based. The note with it: HEK-Blue cells (HEK 293 expressing IL-17RA, IL-17RC, Act1); IL-17A/A stimulation; 20 hours; SEAP read at A630; 4-parameter fit. In outline: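 HEK 293 cells engineered with IL-17RA, IL-17RC and Act1 (NFκB-driven SEAP) given titrated compound (top final 10, 1 or 0.3 uM; 0.1% DMSO) just before IL-17A/A, then incubated 20 h. SEAP in media developed with Quanti-Blue, read at A630; IC50 by 4-parameter nonlinear fit.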
As for `C[C@H](C(=O)NCC(F)(F)F)c1ccc(NC(=O)[C@@H](NC(=O)c2ccnn2CCn2ccnc2)C(C2CC2)C2CC2)c(F)c1` [Compound 95, -(2-(1H-imidazol-1-yl)ethyl)-N-((S)-1,1-dicyclopropyl-3-((2-fluoro-4-((S)-1-oxo-1-((2,2,2-trifluoroethyl)amino)propan-2-yl)phenyl)amino)-3-oxopropan-2-yl)-1H-pyrazole-5-carboxamide], the IC50 (as a rule, the midpoint of a concentration-inhibition curve) is 100 to 1000 nM. As to `CC(C)n1nccc1C(=O)N[C@H](C(=O)Nc1ccc([C@H](C)C(=O)NCC(F)(F)CN)cc1F)C(C1CC1)C1CC1` [Compound 100, N-((S)-1-((4-((S)-1-((3-amino-2,2-difluoropropyl)amino)-1-oxopropan-2-yl)-2-fluorophenyl)amino)-3,3-dicyclopropyl-1-oxopropan-2-yl)-1-isopropyl-1H-pyrazole-5-carboxamide], the IC50 was over 1000 nM. Consider `CC(C)n1nccc1C(=O)N[C@H](C(=O)Nc1ccc([C@H](C)C(=O)N2CCNCC2C(F)(F)F)cc1F)C(C1CC1)C1CC1` (stereo partly drawn) [Compound 101, N-((2S)-1,1-dicyclopropyl-3-((2-fluoro-4-((2S)-1-oxo-1-(2-(trifluoromethyl)piperazin-1-yl)propan-2-yl)phenyl)amino)-3-oxopropan-2-yl)-1-isopropyl-1 H-pyrazole-5-carboxamide], for which the IC50 is over 1000 nM. As for `C[C@H](C(=O)N(C)CC(F)(F)F)c1ccc(NC(=O)[C@@H](Nc2nccn3nccc23)C(C2CC2)C2CC2)c(F)c1` [Compound 106, (S)-3,3-dicyclopropyl-N-(2-fluoro-4-((S)-1-(methyl(2,2,2-trifluoroethyl)amino)-1-oxopropan-2-yl)phenyl)-2-(pyrazolo[1,5-a]pyrazin-4-ylamino)propenamide], the IC50 is over 1000 nM.

Turning to `CC(C)n1nccc1C(=O)N[C@H](C(=O)Nc1ccc(C(C)(C)C(=O)NCC(F)(F)F)cc1F)C(C1CC1)C1CC1` [Compound 107, (S)-N-(1.1-dicyclopropyl-3-((2-fluoro-4-(2-methyl-1-oxo-1-((2,2,2-trifluoroethyl)amino)propan-2-yl)phenyl)amino)-3-oxopropan-2-yl)-1-isopropyl-1H-pyrazole-5-carboxamide], the IC50 was 100 to 1000 nM. With `CCc1cc(NC(=O)[C@@H](NC(=O)c2ccnn2C(C)C)C(C2CC2)C2CC2)c(F)cc1[C@H](C)C(=O)NCC(F)(F)F` [Compound 111, N-((S)-1,1-dicyclopropyl-3-((5-ethyl-2-fluoro-4-((S)-1-oxo-1-((2,2,2-trifluoroethyl)amino)propan-2-yl)phenyl)amino)-3-oxopropan-2-yl)-1-isopropyl-1H-pyrazole-5-carboxamide], the IC50 was under 100 nM. In the case of `CCc1cc(NC(=O)[C@@H](NC(=O)c2ccnn2C(C)C)C(C2CC2)C2CC2)c(F)cc1[C@@H](C)C(=O)NCC(F)(F)F` [Compound 112, N-((S)-1,1-dicyclopropyl-3-((5-ethyl-2-fluoro-4-((R)-1-oxo-1-((2,2,2-trifluoroethyl)amino)propan-2-yl)phenyl)amino)-3-oxopropan-2-yl)-1-isopropyl-1H-pyrazole-5-carboxamide], the IC50 lay in the range of 100 to 1000 nM. Next, `CCCNC(=O)Cc1ccc(NC(=O)[C@@H](NC(=O)c2ccnn2CC)C2CCCCCC2)c(F)c1` [Compound 114, (S)-N-(1-cycloheptyl-2-((2-fluoro-4-(2-oxo-2-(propylamino)ethyl)phenyl)amino)-2-oxoethyl)-1-ethyl-1H-pyrazole-5-carboxamide]: over 1000 nM; `CC(C(=O)NCC(F)(F)F)c1cc(F)c(NC(=O)[C@@H](NC(=O)c2ccnn2C(C)C)C(C2CC2)C2CC2)cc1CN` (stereo partly drawn) [Compound 119, N-((2S)-1-((5-(aminomethyl)-2-fluoro-4-(1-oxo-1-((2,2,2-trifluoroethyl)amino)propan-2-yl)phenyl)amino)-3,3-dicyclopropyl-1-oxopropan-2-yl)-1-isopropyl-1H-pyrazole-5-carboxamide]: 100 to 1000 nM.

These data come from patent publication US20240376056A1, “PHENYL ACETAMIDE BASED IL-17A MODULATORS AND USES THEREOF” (DiCE Alpha, Inc., priority 2021, published 2024).
